For test [1], the system named is cultured human mast cells (CHMC). The experiment in a line: CHMC low cell density IgE activation: tryptase assay. The note with it: IgE activation. In kind it is cell-based. In short, it runs like this:
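Anti-IgE-driven degranulation of cultured human mast cells at low density, 1000–1500 cells/well, was induced over 30 min at 37 °C. It was scored by supernatant tryptase activity on a fluorogenic substrate.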

For test [2] the test system is unchanged. The experiment in a line: CHMC low cell density ionomycin activation: tryptase assay. In kind it is cell-based. The note with it: 3 pt, read-out: LD Tryptase, CHMC, Iono, 3 pt.
Setting [3] is: Homo sapiens, Mast cell, low cell density CHMC, tryptase, 3 pt, read-out: LD Tryptase, CHMC, IgE, 3 pt.
[4] abbreviates: Homo sapiens, Mast cell, low cell density CHMC, tryptase.
Setting [5] is: Homo sapiens, Mast cell, low cell density CHMC, tryptase, 8 pt, read-out: LD Tryptase, CHMC, IgE, 8 pt.
The mark [6] stands for this setting: low cell density CHMC, tryptase, 3 pt, read-out: LD Tryptase, CHMC, IgE, 3 pt.
Where [7] appears, read: low cell density CHMC, tryptase.
The mark [8] stands for this setting: Homo sapiens, Mast cell, low cell density, 3 pt, read-out: LD Tryptase, CHMC, IgE, 3 pt.
Where [9] appears, read: Homo sapiens, Mast cell, low cell density.
Setting [10] is: low cell density, 3 pt, read-out: LD Tryptase, CHMC, IgE, 3 pt.
Where [11] appears, read: Homo sapiens, Mast cell, low cell density, 8 pt, read-out: LD Tryptase, CHMC, IgE, 8 pt.

Take `COc1ccc(N(C)c2nc(Nc3ccc4cc[nH]c4c3)ncc2F)cc1OC` [Compound 436, N4-(3,4-Dimethoxyphenyl)-5-fluoro-N2-(indol-6-yl)-N4-methyl-2,4-pyrimidinediamine]: the values for the IC50 in test [1] (setting [3]) and in test [2] (setting [4]) were less than 10 µM and more than 10 µM, respectively.

Take `COc1cc(Nc2nc(Nc3ccc(N4CCN(C(C)=O)CC4)cc3)ncc2F)cc(OC)c1` [Compound 437]: the values for the IC50 in test [1] (setting [3]) and in test [2] (setting [4]) were less than 10 µM and more than 10 µM, respectively.

On to `COc1ccc(N(C)c2nc(Nc3cccc(-c4cnco4)c3)ncc2F)cc1OC` [Compound 438, N4-(3,4-Dimethoxyphenyl)-5-fluoro-N4-methyl-N2-[3-(oxazol-5-yl)phenyl]-2,4-pyrimidinediamine], for which the IC50 in test [1] (setting [3]) was less than 10 µM; in test [1] (setting [5]), less than 10 µM; in test [2] (setting [4]), more than 10 µM.

`COc1ccc(N(C)c2nc(Nc3ccc(-c4ncco4)cc3)ncc2F)cc1OC` [Compound 440, N4-(3,4-Dimethoxyphenyl)-5-fluoro-N4-methyl-N2-[4-(oxazol-2-yl)phenyl]-2,4-pyrimidinediamine]: the IC50 was less than 10 µM in test [1] (setting [3]) and more than 10 µM in test [2] (setting [4]).

Take `COC(=O)CN(c1ccc2c(c1)OCCO2)c1nc(Nc2cc(C)cc(C)c2)ncc1F` [Compound 441]: the figures for the IC50 in test [1] (setting [3]) and in test [2] (setting [4]) were less than 10 µM and more than 10 µM, respectively.

For the compound `COC(=O)CN(c1ccc2c(c1)OCCO2)c1nc(Nc2cc(OC)cc(OC)c2)ncc1F` [Compound 442], the IC50 in test [1] (setting [3]) is less than 10 µM; in test [2] (setting [4]), more than 10 µM.

Consider `COC(=O)CN(c1ccc2c(c1)OCCO2)c1nc(Nc2cccc(-c3cnco3)c2)ncc1F` [Compound 443], for which the IC50 in test [1] (setting [3]) was less than 10 µM; in test [2] (setting [4]) it was more than 10 µM.

As to `COC(=O)CN(c1ccc2c(c1)OCCO2)c1nc(Nc2cccc(-c3ncco3)c2)ncc1F` [Compound 444], the results for the IC50 in test [1] (setting [3]) and in test [2] (setting [4]) were less than 10 µM and more than 10 µM, respectively.

As to `COC(=O)CN(c1ccc2c(c1)OCCO2)c1nc(Nc2ccc(-c3ncco3)cc2)ncc1F` [Compound 445], the IC50 in test [1] (setting [3]) was less than 10 µM; in test [2] (setting [4]) it was more than 10 µM.

Take `CNC(=O)COc1cccc(Nc2ncc(F)c(N(CC(=O)OC)c3ccc4c(c3)OCCO4)n2)c1` [Compound 446, N4-(3,4-Ethylenedioxyphenyl)-5-fluoro-N4-(methoxycarbonylmethyl)-N2-[3-(N-methylamino)carbonylmethyleneoxyphenyl]-2,4-pyrimidinediamine]: the figures for the IC50 in test [1] (setting [6]) and in test [2] (setting [7]) were less than 10 µM and more than 10 µM, respectively.

Regarding `CNC(=O)COc1cccc(Nc2ncc(F)c(N(C)c3ccc(OC)c(OC)c3)n2)c1` [Compound 447, N4-(3,4-Dimethoxyphenyl)-5-fluoro-N4-methyl-N2-[3-(N-methylamino)carbonylmethyleneoxyphenyl]-2,4-pyrimidinediamine], the IC50 in test [1] (setting [6]) was less than 10 µM; in test [2] (setting [7]), more than 10 µM.

With `CNC(=O)c1cc(Nc2ncc(F)c(Nc3ccc4c(c3)OCCO4)n2)ccc1Cl` [Compound 448], the IC50 in test [1] (setting [3]) is less than 10 µM; in test [1] (setting [5]), less than 10 µM; in test [2] (setting [4]), more than 10 µM.

For the compound `CNC(=O)c1cc(Nc2ncc(F)c(Nc3ccc(OC)c(OC)c3)n2)ccc1Cl` [Compound 449, N2-[4-Chloro-3-(N-methylamino)carbonylphenyl]-N4-(3,4-dimethoxyphenyl)-5-fluoro-2,4-pyrimidinediamine], the IC50 in test [1] (setting [3]) was less than 10 µM; in test [2] (setting [4]), more than 10 µM.

`CNC(=O)c1cc(Nc2ncc(F)c(Nc3cc(OC)cc(OC)c3)n2)ccc1Cl` [Compound 450]: the results for the IC50 in test [1] (setting [3]) and in test [2] (setting [4]) were less than 10 µM and more than 10 µM, respectively.

On to `CNC(=O)c1cc(Nc2ncc(F)c(Nc3ccc(OC)c(Cl)c3)n2)ccc1Cl` [Compound 451, N4-(3-Chloro-4-methoxyphenyl)-N2-[4-chloro-3-(N-methylamino)carbonylphenyl]-5-fluoro-2,4-pyrimidinediamine], for which the IC50 in test [1] (setting [8]) and in test [2] (setting [9]) was less than 10 µM in each case.

As for `CCOC(=O)C(C)(C)Oc1ccc(Nc2nc(Nc3ccc(Cl)c(C(=O)NC)c3)ncc2F)cc1Cl` [Compound 452, N4-[3-Chloro-4-(ethoxycarbonyl-1,1-dimethylmethyleneoxy)phenyl]-N2-[4-chloro-3-(N-methylamino)carbonylphenyl]-5-fluoro-2,4-pyrimidinediamine], the IC50 in test [1] (setting [10]) and in test [2] (low cell density) was less than 10 µM each time.

For `CNC(=O)c1cc(Nc2ncc(F)c(N(C)c3ccc4c(c3)OCCO4)n2)ccc1Cl` [Compound 453, N2-[4-Chloro-3-(N-methylamino)carbonylphenyl]-N4-(3,4-ethylenedioxyphenyl)-5-fluoro-N4-methyl-4-pyrimidinediamine], the IC50 was less than 10 µM in test [1] (setting [10]) and more than 10 µM in test [2] (low cell density).

Turning to `CNC(=O)c1cc(Nc2ncc(F)c(N(C)c3ccc(OC)c(OC)c3)n2)ccc1Cl` [Compound 454, N2-[4-Chloro-3-(N-methylamino)carbonylphenyl]-N4-(3,4-dimethoxyphenyl)-5-fluoro-N4-methyl-4-pyrimidinediamine], the IC50 in test [1] (setting [10]) was less than 10 µM; in test [2] (low cell density) it was more than 10 µM.

`CNC(=O)c1cc(Nc2ncc(F)c(Nc3ccc4c(c3)NC(=O)C(C)(C)O4)n2)ccc1Cl` [Compound 455]: the IC50 in test [1] (setting [8]) was less than 10 µM; in test [1] (setting [11]), less than 10 µM; in test [2] (setting [9]), more than 10 µM.

Turning to `CNC(=O)c1ccc(Nc2ncc(F)c(Nc3ccc4c(c3)NC(=O)C(C)(C)O4)n2)cc1Cl` [Compound 456, N2-[3-Chloro-4-(N-methylamino)carbonylphenyl]-N4-(2,2-dimethyl-3-oxo-4H-benz[1,4]oxazin-6-yl)-5-fluoro-2,4-pyrimidinediamine], the IC50 in test [1] (setting [8]), in test [1] (setting [11]) and in test [2] (setting [9]) was less than 10 µM each time.

Regarding `COc1cc(OC)cc(N(C)c2nc(Nc3ccc(OC)nc3OC)ncc2F)c1` [Compound 457], the IC50 in test [1] (setting [8]), in test [1] (setting [11]) and in test [2] (setting [9]) was less than 10 µM in each case.

As for `COc1ccc(Nc2ncc(F)c(N(C)c3ccc4c(c3)OCCO4)n2)c(OC)n1` [Compound 458], the IC50 in test [1] (setting [8]) and in test [2] (setting [9]) was more than 10 µM throughout.

On to `COc1cc(Nc2nc(Nc3ccc(OC)nc3OC)ncc2F)cc(OC)c1` [Compound 459], for which the IC50 was less than 10 µM in test [1] (setting [8]) and more than 10 µM in test [2] (setting [9]).

Turning to `COc1ccc(Nc2ncc(F)c(Nc3ccc4c(c3)OCCO4)n2)c(OC)n1` [Compound 460], the IC50 in test [1] (setting [8]) was less than 10 µM; in test [2] (setting [9]), more than 10 µM.

As to `CNc1ncc(F)c(N(C)c2ccc3c(c2)OCCO3)n1` [Compound 461], the IC50 in test [1] (setting [8]) and in test [2] (setting [9]) was more than 10 µM each time.

`CN(C)c1ncc(F)c(N(C)c2ccc3c(c2)OCCO3)n1` [Compound 462, N2-Dimethyl-N4-(3,4-ethylenedioxyphenyl)-5-fluoro-N4-methyl-2,4-pyrimidinediamine]: the IC50 in test [1] (setting [10]) and in test [2] (low cell density) was more than 10 µM throughout.

Consider `CNC(=O)c1ccc(Nc2ncc(F)c(Nc3ccc4c(c3)OCCO4)n2)cc1Cl` [Compound 463], for which the IC50 in test [1] (setting [8]) was less than 10 µM; in test [1] (setting [11]), less than 10 µM; in test [2] (setting [9]), more than 10 µM.

`CNC(=O)c1ccc(Nc2ncc(F)c(Nc3ccc(OC)c(OC)c3)n2)cc1Cl` [Compound 464, N2-[3-Chloro-4-(N-methylamino)carbonylphenyl]-N4-(3,4-dimethoxyphenyl)-5-fluoro-2,4-pyrimidinediamine]: the IC50 is less than 10 µM in test [1] (setting [8]) and more than 10 µM in test [2] (setting [9]).

`CNC(=O)c1ccc(Nc2ncc(F)c(Nc3cc(OC)cc(OC)c3)n2)cc1Cl` [Compound 465]: the IC50 in test [1] (setting [8]) is less than 10 µM; in test [2] (setting [9]), more than 10 µM.

With `CNC(=O)c1ccc(Nc2ncc(F)c(Nc3ccc(OC)c(Cl)c3)n2)cc1Cl` [Compound 466], the figures for the IC50 in test [1] (setting [8]), in test [1] (setting [11]) and in test [2] (setting [9]) were less than 10 µM, less than 10 µM and more than 10 µM, respectively.

As for `CCOC(=O)C(C)(C)Oc1ccc(Nc2nc(Nc3ccc(C(=O)NC)c(Cl)c3)ncc2F)cc1Cl` [Compound 467, N4-[3-Chloro-4-(ethoxycarbonyl-1,1-dimethylmethyleneoxy)phenyl]-N2-[3-chloro-4-(N-methylamino)carbonylphenyl]-5-fluoro-2,4-pyrimidinediamine], the IC50 was less than 10 µM in test [1] (setting [10]); less than 10 µM in test [1] (low cell density, 8 pt, read-out: LD Tryptase, CHMC, IgE, 8 pt); less than 10 µM in test [2] (low cell density).

Consider `CNC(=O)c1ccc(Nc2ncc(F)c(Nc3cccc(O)c3)n2)cc1Cl` [Compound 468], for which the IC50 was less than 10 µM in test [1] (setting [8]), less than 10 µM in test [1] (setting [11]) and more than 10 µM in test [2] (setting [9]).

As for `CN(c1ccc2c(c1)OCCO2)c1nc(NCCO)ncc1F` [Compound 469, N4-(3,4-Ethylenedioxyphenyl)-5-fluoro-N2-(2-hydroxyethyl)-N4-methyl-2,4-pyrimidinediamine], the IC50 in test [1] (setting [8]) and in test [2] (setting [9]) was more than 10 µM each time.

With `CCOC(=O)C(C)(C)Oc1ccc(N(C)c2nc(Cl)ncc2F)cc1Cl` [Compound 470, 2-Chloro-N4-[3-chloro-4-(ethoxycarbonyl-1,1-dimethylmethyleneoxy)phenyl]-5-fluoro-N4-methyl-4-pyrimidineamine], the IC50 in test [1] (setting [10]) is more than 10 µM; in test [2] (low cell density), less than 10 µM.

These data come from patent publication US20220073536A1 (Rigel Pharmaceuticals, Inc., priority 2003, published 2022).
